Assay results reported in patent US11426374B2, “Modification of the pH and other physical properties of oxaloacetic acid to allow for enhanced stability and multiple delivery systems” (Terra Biological LLC, priority 2015, dated 2022).
Entries after “also recorded” stand apart in the source; their conditions may differ.

Key:
[1] = Lozenge of oxaloacetic acid with a test substance, stability in open environment for one week; details: for decomposition of oxaloacetic acid compounded with the ingredient and compressed into a lozenge: examination over a period of one week; for effective way of increasing the pH without degrading the oxaloacetic acid: pH modifier combined with oxaloacetic acid
Description: The Applicant set out on a path of discovery to ascertain what compounds would be stable with oxaloacetic acid—not just for pH modification, but for other physical properties necessary for various delivery systems, such as color stabilization, lozenge dissolve time, lozenge friability, taste, lozenge release from the tablet mold, flow agents, and bulking agents in addition to pH modification. Preparations of oxaloacetic acid was compounded with various ingredients and compressed into a lozenge for examination over a period of one week.
A lozenge is created consisting of 100 mg oxaloacetic acid, and 100 mg of a test substance. The powders are compressed in a tablet mold and released. Each test tablet is placed on a cardboard for one week to ascertain stability in an open environment, such as an open bottle.
The procedure in Example 1 was followed, but with the following individual modifiers to oxaloacetic acid: • Calcium Carbonate (pH Modifier) • Erythitol (Taste Modifier) • Dicalcium Phosphate dihydrate (pH Modifier and lozenge binder) • Vegetable Steric Acid (Release Agent) • Ascorbyl Palmitate (Release Agent)

[2] = pH of solution created by oxaloacetic acid delivered to the mouth; assay type: physicochemical; details: delivered to the mouth in powder or lozenge form
Description: Other methods of delivery are transdermal patches, sublingual lozenges, buccal lozenges, inhalation preparations and anal or vaginal suppositories. These methods of delivery can provide higher percentages of the given oxaloacetate to the blood stream for distribution to various organs, and provide the oxaloacetate quicker than the oral route. These delivery methods face a problem with the acidity of oxaloacetic acid. As an example of this, oxaloacetic acid delivered to the mouth in powder or lozenge form creates a solution at a pH of approximately 2.3. This low pH degrades the enamel on the teeth, and provides a large challenge to continued long-term use of oxaloacetate in sublingual lozenges and buccal lozenges. The effect on the teeth is apparent after just 100 mg oxaloacetate is taken either sublingually or via buccal lozenge. The low pH also causes a painful burning sensation in the lungs if inhaled. Vaginal and anal suppositories are also uncomfortable at low pH. Transdermal patches at low pH are also uncomfortable.

[3] = Yoshikawa 1968; Cash 2013; room temperature for the sodium salt; cited from earlier work
[4] = oxaloacetic acid with anhydrous NaOH or KOH or both

Row | Molecule | decomposition of oxaloacetic acid compounded with the ingredient and compressed into a lozenge [1] | further results
1 | O=C([O-])[O-].[Ca+2] [Calcium Carbonate] | effective | effective way of increasing the pH without degrading the oxaloacetic acid [1]: effective
2 | [Na+].[OH-] [NaOH, sodium hydroxide] | rapid decomposition | –
3 | OC[C@H]1O[C@@](CO)(O[C@H]2O[C@H](CO)[C@@H](O)[C@H](O)[C@H]2O)[C@@H](O)[C@@H]1O [Table sugar] | rapid decomposition | –
4 | O=C([O-])O.[Na+] [Sodium bicarbonate] | rapid decomposition | effective way of increasing the pH without degrading the oxaloacetic acid [1]: not effective
5 | Magnesium Stearate | rapid decomposition | –
6 | OC[C@@H](O)[C@H](O)[C@@H](O)CO [Xylitol] | rapid decomposition; also recorded: did not work well | –
7 | [Cl-].[Na+] [NaCl] | rapid decomposition | –
8 | [Mg+2].[OH-].[OH-] [Magnesium Hydroxide] | rapid decomposition | –
9 | O=C([O-])CC(O)(CC(=O)[O-])C(=O)[O-].[K+].[K+].[K+] [Potassium Citrate] | rapid decomposition | –
10 | OC[C@@H](O)[C@@H](O)CO [Erythitol] | effective | –
11 | O=C(O)CC(=O)C(=O)O [oxaloacetic acid] | – | pH of solution [2]: approximately 2.3; stability [3]: not stable at all
12 | [O]=[Ti]=[O] [TiO2] | rapid decomposition | –
13 | O.O.O=P([O-])([O-])O.[Ca+2] [Dicalcium Phosphate dihydrate] | effective | –
14 | O=C([O-])CC(=O)C(=O)O.[Na+] [sodium oxaloacetate] | – | stability [3]: not stable, and quickly degrades at room temperature
15 | CCCCCCCCCCCCCCCCCC(=O)O [Vegetable Steric Acid] | effective | –
16 | Silicon Dioxide | rapid decomposition | –
17 | O=C(O)CC(O)(CC(=O)O)C(=O)O [Citric Acid] | rapid decomposition | –
18 | O=C([O-])O.[K+] [Potassium Bicarbonate] | rapid decomposition | –
19 | CCCCCCCCCCCCCCCC(=O)OC[C@H](O)[C@H]1OC(=O)C(O)=C1O [Ascorbyl Palmitate] | effective | –
20 | [O]=[Mg] [Magnesium Oxide] | rapid decomposition | –
21 | O=P([O-])([O-])O.[Ca+2] [Calcium Phosphate Dibasic] | rapid decomposition | –
22 | [K+].[OH-] [KOH, potassium hydroxide] | rapid decomposition | degradation of sublingual tablets after manufacture [4]: degraded within a few days; effective way of increasing the pH without degrading the oxaloacetic acid [1]: not effective
